We go through 27 compounds from patent US7524860B2, “Antibacterial agents” (Pfizer Inc., priority 2004, dated 2009).

One may read the MIC as the smallest concentration in the dilution series that meets the test's criterion for growth inhibition.

The subject of this experiment is Neisseria gonorrhoeae, GC525 (NG-2888). In words: in-vitro antibacterial activity, microbroth dilution MIC susceptibility testing. The settings on record: microbroth dilution in gonococcal broth, 20-24 hours at 35 C, lowest concentration preventing visible growth. The arrangement: unit: ug/mL. It is filed as cell-based. The essentials:
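Broth microdilution in gonococcal broth, inoculum ~5×10^5 cfu/mL, 20-24 h at 35 C in humidified CO2; compounds from 2 mg/mL DMSO stocks over 64-0.06 and 1-0.001 ug/mL two-fold series. MIC is the lowest concentration preventing visible growth, read visually; duplicates differing one well give the lower value, two wells the middle value.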
A general note: Dilution methods test growth across graded concentrations, often in twofold steps.

Setting [1] is: Neisseria gonorrhoeae, read-out: MIC.

Values after ≈ are worked out from the molar mass of the structure shown. Where two headings read alike, the source gives them in different places.

In the case of `CCNC(=O)Nc1nc2cc(N3CCCC3)cc(C(=O)N3CCCC3)n2n1` [Example 121, 1-Ethyl-3-[5-(pyrrolidine-1-carbonyl)-7-pyrrolidin-1-yl-[1,2,4]triazolo[1,5-a]pyridin-2-yl]-urea], under setting [1], the MIC worked out at 64 µg/mL (≈ 172 µM).

As for `CCNC(=O)Nc1nc2cc(-c3cccnc3)cc(C(=O)Cc3ccccc3)n2n1` [Example 110, 1-Ethyl-3-(5-phenylacetyl-7-pyridin-3-yl-[1,2,4]triazolo[1,5-a]pyridine-2-yl)-urea], the MIC under setting [1] amounted to 4 µg/mL (≈ 9.99 µM).

For the compound “1-Ethyl-3-[7-pyridin-3-yl-5-(pyrrolidine-1-carbonyl)-imidazo[1,2-a]pyridin-2-yl]-urea [Example 120]”, the MIC is over 64.0 µg/mL.

In turn, `CCNC(=O)Nc1nc2cc(-c3cccnc3)cc(C(=O)N(CC)CC)n2n1` [Example 104, 2-(3-Ethyl-ureido)-7-pyridin-3-yl-[1,2,4]triazolo[1,5-a]pyridine-5-carboxylic acid diethylamide] gave an MIC of 64.0 µg/mL (≈ 168 µM).

Take `CCNC(=O)Nc1nc2cc(-c3cccnc3)cc(C(=O)N(C)CCN(CC)CC)n2n1` [Example 36, 2-(3-Ethyl-ureido)-7-pyridin-3-yl-[1,2,4]triazolo[1,5-a]pyridine-5-carboxylic acid(2-diethylamino-ethyl)-methyl-amide]: the MIC under setting [1] was over 64 µg/mL.

Consider `CCCNC(=O)c1cc(-c2cccnc2)cc2nc(NC(=O)NCC)nn12` [Example 9, 2-(3-Ethyl-ureido)-7-pyridin-3-yl-[1,2,4]triazolo[1,5-a]pyridine-5-carboxylic acid propylamide], for which the MIC under setting [1] was 4 µg/mL (≈ 10.9 µM).

`CCNC(=O)Nc1nc2cc(-c3cccnc3)cc(C(=O)NCCN(C)C)n2n1` [Example 105, 2-(3-Ethyl-ureido)-7-pyridin-3-yl-[1,2,4]triazolo[1,5-a]pyridine-5-carboxylic acid (2-dimethylamino-ethyl)-amide]: the MIC under setting [1] was 16 µg/mL (≈ 40.4 µM).

Compound `CCNC(=O)c1cc(-c2cccnc2)cc2nc(NS(=O)(=O)CC)nn12` [Example 151, 2-N-ethylsulfonylamino-7-pyridin-3-yl-[1,2,4]triazolo[1,5-a]pyridin-5-carboxylic acid ethyl amide] registered an MIC of 32.0 µg/mL (≈ 85.5 µM).

For the compound `CCNC(=O)Nc1nc2cc(-c3cccnc3)cc(C(=O)NCCCN)n2n1` [Example 107, 2-(3-Ethyl-ureido)-7-pyridin-3-yl-[1,2,4]triazolo[1,5-a]pyridine-5-carboxylic acid (3-amino-propyl)-amide], under setting [1], the MIC was over 64 µg/mL.

For the compound `CCCC(=NOC)c1cc(-c2cccnc2)cc2nc(NC(=O)NCC)nn12` [Example 112, 1-Ethyl-3-[5-(1-methoxyimino-butyl)-7-pyridin-3-yl-[1,2,4]triazolo[1,5-a]pyridine-2-yl]-urea], the MIC under setting [1] came to 8 µg/mL (≈ 21 µM).

Take `CCNC(=O)Nc1nc2cc(-c3cccnc3)cc(-c3ccccn3)n2n1` [Example 127, 1-Ethyl-3-(5-pyridin-2-yl-7-pyridin-3-yl-[1,2,4]triazolo[1,5-a]pyridin-2-yl)-urea]: the minimum inhibitory concentration (MIC) under setting [1] was determined as 32 µg/mL (≈ 89 µM).

Regarding `CCNC(=O)Nc1nc2cc(-c3cccnc3)cc(C(=O)NCC)n2n1` [Example 8, 2-(3-Ethyl-ureido)-7-pyridin-3-yl-[1,2,4]triazolo[1,5-a]pyridine-5-carboxylic acid ethylamide], the minimal inhibitory concentration (MIC) under setting [1] stood at 1 µg/mL (≈ 2.83 µM).

As to `CCNC(=O)Nc1nc2cc(-c3ccccc3)cc(C(=O)NCC)n2n1` [Example 71, 2-(3-Ethyl-ureido)-7-phenyl-[1,2,4]triazolo[1,5-a]pyridine-5-carboxylic acid ethylamide], the minimal inhibitory concentration (MIC) under setting [1] is 4 µg/mL (≈ 11.4 µM).

On to `CCOC(=O)c1cc(-c2cnc(N(C)C)nc2)cc2nc(NC(=O)NC(C)C)cn12` [Example 116, 7-(2-Dimethylamino-pyrimidin-5-yl)-2-(3-isopropyl-ureido)-imidazo[1,2-a]pyridine-5-carboxylic acid ethyl ester], for which the MIC was over 64.0 µg/mL.

Turning to `CCNC(=O)Nc1nc2cc(-c3cccnc3)cc(C(=O)NC3CCOC3)n2n1` (stereo not drawn) [Example 45, 2-(3-Ethyl-ureido)-7-pyridin-3-yl-[1,2,4]triazolo[1,5-a]pyridine-5-carboxylic acid (tetrahydro-furan-3-yl)-amide], the MIC under setting [1] was over 64 µg/mL.

Regarding `CCNC(=O)Nc1nc2cc(-c3cccnc3)cc(C(=O)N(C)Cc3ncccc3C)n2n1` [Example 89, 2-(3-Ethyl-ureido)-7-pyridin-3-yl-[1,2,4]triazolo[1,5-a]pyridine-5-carboxylic acid methyl-(3-methyl-pyridin-2-yl-methyl)-amide], the MIC under setting [1] stood at 8 µg/mL (≈ 18 µM).

`CCNC(=O)Nc1nc2cc(-c3cccnc3)cc(C(=O)Nc3nccs3)n2n1` [Example 50, 2-(3-Ethyl-ureido)-7-pyridin-3-yl-[1,2,4]triazolo[1,5-a]pyridine-5-carboxylic acidthiazol-2-ylamide]: the MIC under setting [1] turned out to be 2 µg/mL (≈ 4.9 µM).

For `CCNC(=O)Nc1nc2cc(-c3cccnc3)cc(OCCN3CCCCC3)n2n1` [Example 144, 1-Ethyl-3-[5-(2-piperidin-1-yl-ethoxy)-7-pyridin-3-yl-[1,2,4]triazolo[1,5-a]pyridin-2-yl]-urea], the MIC under setting [1] is 32 µg/mL (≈ 78.1 µM).

Turning to `CCNC(=O)Nc1nc2cc(-c3ccccc3C#N)cc(C(=O)NCC)n2n1` [Example 65, 7-(2-Cyano-phenyl)-2-(3-ethyl-ureido)-[1,2,4]triazolo[1,5-a]pyridine-5-carboxylic acid ethylamide], the MIC under setting [1] is 32 µg/mL (≈ 84.8 µM).

On to `CCNC(=O)Nc1nc2cc(-c3cccnc3)cc(NC3CCCCC3)n2n1` [Example 138, 1-(5-Cyclohexylamino-7-pyridin-3-yl-[1,2,4]triazolo[1,5-a]pyridin-2-yl)-3-ethyl-urea], for which, under setting [1], the MIC was 0.5 µg/mL (≈ 1.32 µM).

For `CCNC(=O)Nc1nc2cc(-c3cccnc3)cc(-c3nc(CC)cs3)n2n1` [Example 122, 1-Ethyl-3-[5-(4-ethyl-thiazol-2-yl)-7-pyridin-3-yl-[1,2,4]triazolo[1,5-a]pyridin-2-yl]-urea], under setting [1], the MIC came out at 0.06 µg/mL (≈ 0.152 µM).

Consider `CCNC(=O)Nc1cn2c(CN3CCCC3)cc(-c3cccnc3)cc2n1` [Example 113, 1-Ethyl-3-(7-pyridin-3-yl-5-pyrrolidin-1-ylmethyl-imidazo[1,2-a]pyridin-2-yl)-urea], for which the MIC under setting [1] is 64 µg/mL (≈ 176 µM).

Take `CCNC(=O)Nc1nc2cc(-c3cccnc3)cc(C(=O)NCC3CC3)n2n1` [Example 10, 2-(3-Ethyl-ureido)-7-pyridin-3-yl-[1,2,4]triazolo[1,5-a]pyridine-5-carboxylic acid cyclopropylmethyl-amide]: under setting [1], the MIC stood at 8 µg/mL (≈ 21.1 µM).

With `CCNC(=O)Nc1nc2cc(-c3cccc(C)c3)cc(C(=O)NCC)n2n1` [Example 52, 2-(3-Ethyl-ureido)-7-m-tolyl-[1,2,4]triazolo[1,5-a]pyridine-5-carboxylic acid ethylamide], the MIC under setting [1] turned out to be 4 µg/mL (≈ 10.9 µM).

As to `CCNC(=O)Nc1nc2cc(-c3cccnc3)cc(C(=O)N(C)Cc3cc(C)no3)n2n1` [Example 76, 2-(3-Ethyl-ureido)-7-pyridin-3-yl-[1,2,4]triazolo[1,5-a]pyridine-5-carboxylic acidmethyl-(3-methyl-isoxazol-5-yl-methyl)-amide], under setting [1], the minimal inhibitory concentration (MIC) was 8 µg/mL (≈ 18.4 µM).

As to `CCNC(=O)Nc1nc2cc(-c3cncnc3)ccn2n1` [Example 5, 1-Ethyl-3-(7-pyrimidin-5-yl-[1,2,4]triazolo[1,5-a]pyridin-2-yl)-urea], the MIC under setting [1] stood at 64 µg/mL (≈ 226 µM).

For `CCNC(=O)Nc1nc2cc(-c3cccnc3)cc(-c3cnc(CC)o3)n2n1` [Example 139, N-Ethyl-N′-[5-(2-ethyl-1,3-oxazol-5-yl)-7-pyridin-3-yl[1,2,4]triazolo[1,5-a]pyridin-2-yl]urea], under setting [1], the MIC was 1 µg/mL (≈ 2.65 µM).
